IC50 and melting point data for four compounds are collected here from patent US7160919B2, “C7 lactyloxy-substituted taxanes” (Florida State University Research Foundation, Inc., priority 2004, dated 2007).

For one series, the system named is VM46 colon cell line. The series can be described thus: In vitro cytotoxicity, cell colony formation assay (VM46). In kind it is cell-based. The following applies: 72 h drug incubation, colonies counted after 7 days, concentration producing 50% inhibition of colony formation. Here is the method:
(§1) Four hundred cells (HCT116) were plated in 60 mm Petri dishes containing 2.7 mL of medium (modified McCoy's 5a medium containing 10% fetal bovine serum and 100 units/mL penicillin and 100 µg/mL streptomycin). The cells were incubated in a CO2 incubator at 37° C. for 5 h for attachment to the bottom of Petri dishes. The compound identified in Example 1 was made up fresh in medium at ten times the final concentration, and then 0.3 mL of this stock solution was added to the 2.7 mL of medium in the dish. The cells were then incubated with drugs for 72 h at 37° C. At the end of incubation the drug-containing media were decanted, the dishes were rinsed with 4 mL of Hank's Balance Salt Solution (HBSS), 5 mL of fresh medium was added, and the dishes were returned to the incubator for colony formation. The cell colonies were counted using a colony counter after incubation for 7 days. Cell survival was calculated and the values of IC50 (the drug concentration producing 50% inhibition of colony formation) were determined for each tested compound.
An identical assessment was carried out using the VM46 colon cell line.
(§2) The assays described above were repeated using the compound identified in Example 2. The results of these assays are tabulated below in comparison with data for paclitaxel and docetaxel.

A further series deals with HCT116 cells. The series can be described thus: In vitro cytotoxicity, cell colony formation assay (HCT116). The series is classed as cell-based. As to conditions: colonies counted after 7 days, concentration producing 50% inhibition of colony formation. On the procedure:
as §1, §2

The mark [1] stands for this setting: Homo sapiens, HCT-116, 72 h drug incubation.

In the case of `CC(=O)O[C@@]12CO[C@@H]1C[C@H](O)[C@@]1(C)C(=O)[C@H](O)C3=C(C)[C@@H](OC(=O)[C@H](O)[C@@H](NC(=O)OC(C)(C)C)c4ccccc4)C[C@@](O)([C@@H](OC(=O)c4ccccc4)[C@H]21)C3(C)C` [Docetaxel, docetaxel, reference compound], the values for the IC50 with VM46 colon cell line and in the series with HCT116 cells (72 h drug incubation) were 6.7 nM and 0.6 nM, respectively.

`CC(=O)O[C@@]12CO[C@@H]1C[C@H](OC(=O)[C@@H](C)O)[C@@]1(C)C(=O)[C@H](O)C3=C(C)[C@@H](OC(=O)[C@H](O)[C@@H](NC(=O)OC(C)(C)C)c4ccco4)C[C@@](O)([C@@H](OC(=O)c4ccccc4)C12)C3(C)C` (stereo partly drawn) [7-((R)-(+)-2-hydroxyloxypropionyl)-2-furyl-Docetaxel]: the IC50 in the series on VM46 colon cell line was 4.22 nM; with HCT116 cells (setting [1]), 0.05 nM.

Consider `CC(=O)O[C@H]1C(=O)[C@@]2(C)[C@H]([C@H](OC(=O)c3ccccc3)[C@]3(O)C[C@H](OC(=O)[C@H](O)[C@@H](NC(=O)c4ccccc4)c4ccccc4)C(C)=C1C3(C)C)[C@]1(OC(C)=O)CO[C@@H]1C[C@@H]2O` [Paclitaxel, paclitaxel, reference compound], for which the results for the IC50 in the series with VM46 colon cell line and with HCT116 cells (setting [1]) were 20 nM and 2.1 nM, respectively.

For `CC(=O)O[C@@]12CO[C@@H]1C[C@H](OC(=O)[C@H](C)O)[C@@]1(C)C(=O)[C@H](O)C3=C(C)[C@@H](OC(=O)[C@H](O)[C@@H](NC(=O)OC(C)(C)C)c4ccco4)C[C@@](O)([C@@H](OC(=O)c4ccccc4)C12)C3(C)C` (stereo partly drawn) [7-((S)-(−)-2-hydroxyloxypropionyl)-2-furyl-Docetaxel], the melting point fell in the range of 174 to 176 °C. Further, half-maximal inhibition with VM46 colon cell line (IC50) required 2.5 nM. The midpoint of inhibition in the series with HCT116 cells (setting [1]), the IC50, lay at 0.17 nM.
